Measurements: US20190359560A1, “ANTI-INFLAMMATORY DRUG AND USES THEREOF” (KYUSHU UNIVERSITY, NATIONAL UNIVERSITY CORPORATION, priority 2015, published 2019)

What was measured:
Ccl2 mRNA = Ccl2 mRNA in Hepa1-6 cells exposed to LPS or TNFα; format: cell-based, mouse; settings: 10 μM, 12 hours
Experimental: Next, whether or not Compound No. 2 whose effect in vivo was confirmed has an effect to antagonize the activation of an inflammatory signal was examined. Hepa1-6 cells were exposed to Compound No. 2 at a dose of 10 μM simultaneously with exposure to lipopolysaccharide (LPS) or TNFα which activates NF-κB for which the G0S2 protein acts as a regulator. As shown in FIGS. 10A and 10B, the cells were recovered 12 hours after the exposure and the expression level of Ccl2 mRNA was measured. […] In addition, 25 μg of LPS was administered to the tail vein of a mouse to thereby construct a hepatitis model. 30 minutes after the administration of LPS, Compound No. 2 (5 mg/kg) was administered to the tail vein of the mouse, and the liver was sampled at 6 hours.

[1] = system: nuclear receptor RARα mRNA; experiment: RARα mRNA expression in Hepa1-6 cells (qRT-PCR); format: cell-based, mouse; settings: 10 μM, 24 hours
G0S2 promoter = G0S2 promoter luciferase activity in O-4000E cell line, IC50; format: cell-based, mouse; settings: O-4000E cells, 24 hours after exposure
Experimental: The present inventors have searched for a G0S2 gene transcription inhibitor. In searching, the present inventors have received a compound library consisting of 9600 compounds (Core library) from the Open Innovation Center for Drug Discovery, The University of Tokyo. For this compound library, primary screening was carried out by evaluating an effect of compounds on a luciferase activity using a 384-well plate. The drug efficacy evaluation was studied three times for each compound (final concentration of 10 μM) using a cell line stably expressing an expression cassette in which a luciferase gene was ligated to the downstream side of the G0S2 promoter (−2030→−1378), and compounds which reduced a luciferase activity to less than ¼ were extracted from all studies. As a result, 175 compounds were hit.
For the evaluation of drug efficacy of Compound Nos. 1 and 2, which are hit compounds, an IC50 was calculated. The O-4000E cell line was seeded, and Compound Nos. 1 and 2 were serially diluted in […] so as to have final concentrations of 0.15625 μM to 10 μM, followed by exposure of the cells to the compounds. The luciferase activity was measured 24 hours after the exposure, and the curve fitting was carried out to calculate an IC50 of the compounds.
Detailed drug efficacy evaluation at low concentrations was carried out for the compound of Example 2 (NS-3-011) whose drug efficacy at a concentration of less than 10 μM was observed based on the studies so far and which is expected to have an effect equal to or more than that of Compound No. 2. First, using O-4000E cells, IC50 of Compound No. 2 and the compound of Example 2 (NS-3-011) on the G0S2 promoter activity was calculated.

[2] = system: G0S2 promoter (−2030→+10); experiment: G0S2 promoter (−2030→+10) luciferase assay in Hepa1-6 cells; format: cell-based, mouse; settings: Hepa1-6 reporter cells, 10 μM, 24 hours
Experimental: To get closer to the environment in the liver, a cell stably expressing an expression cassette in which a luciferase gene was ligated to the downstream side of the G0S2 promoter (−2030→+10) was constructed in the Hepa1-6 cell, which is a mouse hepatoma-derived cell. Using this cell, an effect of the candidate compounds on the luciferase activity was evaluated in the same manner as in the primary screening described above.

G0S2 mRNA [3] = experiment: G0S2 mRNA expression in Hepa1-6 cells (qRT-PCR); format: cell-based, mouse; settings: 48 hours
Experimental: The effect of the compound on the expression level of mRNA of the G0S2 gene was evaluated for the three compounds extracted so far. 24 hours after seeding with Hepa1-6 cells, the cells were exposed to hit compounds at 10 μM and sampling and total RNA extraction were carried out 24 hours later. Subsequently, changes in the expression level of mRNA of the G0S2 gene were measured by a qRT-PCR method.
Hepa1-6 cells were exposed to 10 μM of each of seven derivatives of Compound No. 2 (Examples 2 and 4 to 9) and an effect of the derivative compounds on the expression level of G0S2 mRNA after 24 hours was evaluated.
Therefore, Hepa1-6 cells were exposed to Compound No. 2 and the compound of Example 2 (NS-3-011) in the range of 0.5 to 5 μM and an effect of the compounds on the expression level of endogenous G0S2 mRNA after 48 hours was evaluated.
Subsequently, Hepa1-6 cells were transfected with siRNA against Hsd17b4 or control siRNA in the presence (10 μM) or absence (indicated as “DMSO” in FIG. 22B) of Compound No. 2. Subsequently, each cell was recovered after 48 hours and total RNA was extracted. Subsequently, the expression level of the G0S2 gene was quantified by real-time PCR.

G0S2 mRNA [4] = experiment: G0S2 mRNA in liver of normal mice; format: in vivo, mouse; settings: normal ICR male mice, 15 mg/kg subcutaneous
Experimental: An effect of Compound No. 2 with a lower IC50 value on the expression level of G0S2 mRNA in the liver of normal mice was examined. Compound No. 2 was subcutaneously administered on the dorsal region of ICR male mice at a dose of 15 mg/kg. The expression level of G0S2 mRNA in the liver at 30 minutes, 1, 2, 4, 6, 12, and 24 hours after the administration of Compound No. 2 was measured.

CCCCCCNC(=N)NCc1ccccc1 [Compound No. 2]
expression of Ccl2 mRNA increased by LPS (Ccl2 mRNA; LPS 100 ng/mL): significantly inhibited | expression of Ccl2 mRNA increased by TNFα (Ccl2 mRNA; TNFα 200 ng/mL): significantly inhibited | expression level of nuclear receptor RARα mRNA [1]: no change | IC50 (G0S2 promoter; Mus musculus, 24 h): 2.25 µM | IC50 (G0S2 promoter): 2.31 µM | G0S2 promoter (−2030→+10) activity (relative value) [2]: less than ½ | G0S2 mRNA expression level (G0S2 mRNA [3]; 5 μM, vs DMSO): significant decrease | effect of lowering the expression level of the G0S2 gene after transfection with siRNA against Hsd17b4 (G0S2 mRNA [3]; 10 μM): disappeared | expression level of the G0S2 gene (G0S2 mRNA [3]; 10 μM, control siRNA): significantly decreased | expression level of G0S2 mRNA in the liver (G0S2 mRNA [4]; 2 hours and 12 hours): significantly decreased | expression level of G0S2 mRNA in the liver (G0S2 mRNA [4]; 4 hours after administration): tended to decrease to about half
